target: T1, P2X3 (Homo sapiens, UniProt P56373); assay: P2X3 Antagonist Assay (FLIPR calcium, Fluo-8, HEK293 cells transfected with human ion channel cDNAs, αβ-meATP stimulation); assay type: cell-based; details: HEK293, @ 1 μM, antagonist mode, αβ-meATP 3 μM, read-out: P2X3 IC50 column, given as % @ 1 μM
T1 construct: expressed in transfected cells; host or cells: HEK293
T1 sequence (P56373 1-397): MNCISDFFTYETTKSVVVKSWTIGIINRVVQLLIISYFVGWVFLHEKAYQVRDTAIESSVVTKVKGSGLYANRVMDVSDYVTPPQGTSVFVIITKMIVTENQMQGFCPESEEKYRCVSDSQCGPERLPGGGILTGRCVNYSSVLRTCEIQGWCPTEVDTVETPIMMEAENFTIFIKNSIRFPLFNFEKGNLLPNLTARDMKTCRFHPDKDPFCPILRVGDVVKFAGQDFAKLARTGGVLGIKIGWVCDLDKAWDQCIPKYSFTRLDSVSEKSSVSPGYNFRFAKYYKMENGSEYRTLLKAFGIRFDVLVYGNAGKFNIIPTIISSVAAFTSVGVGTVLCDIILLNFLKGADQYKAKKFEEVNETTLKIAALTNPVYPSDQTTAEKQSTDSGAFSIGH
Procedure: Example 59: P2X3 Antagonist Assay
HEK293 were transiently or stably transfected with human ion channel cDNAs as indicated in section 1. Stable transfectants were selected by coexpression with the antibiotic-resistance gene(s) incorporated into the expression plasmid(s). Selection pressure was maintained by including selection antibiotics in the culture medium. HEK293 cells were cultured in Dulbecco's Modified Eagle Medium/Nutrient Mixture F-12 (D-MEM/F-12) supplemented with 10% fetal bovine serum, 100 U/mL penicillin G sodium, 100 J·Lg/mL streptomycin sulfate and appropriate selection antibiotics.
The effect of each test article to act as an antagonist was evaluated. Each test article was evaluated at eight (8) concentrations (0.001, 0.003, 0.01, 0.03, 0.1, 0.3, 1 and 3 μM, n=3) with 4 replicates for each concentration. Experiments were performed with the FLIPR calcium sensitive dye kit (Fluo-8 dye, AAT, Bioquest) according to the manufacturer's instructions. • Dye-loading: Growth media will be removed and add 20 μL of Mg^++-free HBPS containing Fluo-8 for 30 min at 37° C. • Preincubation (FLIPR step 1): Adding 5× (5 μL) test, vehicle, or control article solutions in Mg^+-free HBPS to each well for 20 minutes at room temperature, protected from light. • Stimulation (FLIPR step 2): After pre-incubation, cells will be stimulated with 6× (5 μL) αβ-meATP at final concentration of 3 μM prepared in Mg^++-free HBPS. • Non-Specific Calcium Influx (FLIPR step 3): 5 minutes after stimulation solution addition, non-specific calcium influx will be activated by adding 7×(5 μL) ionomycin at a final concentration of 5 μM. Fluorescence will be recorded continuously during FLIPR steps 2 and 3. • Positive Control Antagonist: PPADS (1 mM).
Data acquisition was performed via the FLIPRControl software that is supplied with the FLIPR System (MDS-AT) and data was analyzed using Microsoft Excel2003 (Microsoft Corp., Redmond, WA).

inhibition at 1 µM [%] | SMILES
6 | CNC(=O)c1cc(F)c(-c2nc3cc(C)cnn3c2C[C@H]2CN(C(=O)OC)CCO2)c(F)c1 [Compound A27, methyl (S)-2-((2-(2,6-difluoro-4-(methylcarbamoyl)phenyl)-7-methylimidazo[1,2-b]pyridazin-3-yl)methyl)morpholine-4-carboxylate]
16 | COC(=O)N1CCO[C@@H](Cc2c(-c3ccc([S+](C)[O-])cc3F)nc3cc(C)ccn23)C1 (stereo partly drawn) [Compound A58, methyl (2S)-2-((2-(2-fluoro-4-(methylsulfinyl)phenyl)-7-methyl-imidazo[1,2-a]pyridin-3-yl)methyl)morpholine-4-carboxylate]
5 | CNC(=O)c1cc(F)c(-c2c(C[C@H]3CN(C(=O)OC)CCO3)nc3nc(C)ccn23)c(F)c1 [Compound A33, methyl (S)-2-((3-(2,6-difluoro-4-(methylcarbamoyl)phenyl)-7-methylimidazo[1,2-a]pyrimidin-2-yl)methyl)morpholine-4-carboxylate]
30 | CNC(=O)c1cc(F)c(-c2nc3cc(C)ccn3c2CC2CCCCN(C(=O)OC)C2)c(F)c1 (single isomer, unassigned) [A17 (Peak 1), methyl 3-((2-(2,6-difluoro-4-(methylcarbamoyl)phenyl)-7-methylimidazo[1,2-a]pyridin-3-yl)methyl)azepane-1-carboxylate]

same assay, conditions: antagonist mode, αβ-meATP 3 μM

IC50 [nM] | SMILES
< 100 | CNC(=O)c1cc(F)c(-c2nc3nc(C)ccn3c2C[C@H]2CN(C(=O)OC)CCO2)c(F)c1 [Compound A28, methyl (S)-2-((2-(2,6-difluoro-4-(methylcarbamoyl)phenyl)-7-methylimidazo[1,2-a]pyrimidin-3-yl)methyl)morpholine-4-carboxylate]
100 to 1000 | CNC(=O)c1cc(F)c(-c2nc3cc(C(F)(F)F)ccn3c2C[C@H]2CN(C(=O)OC)CCO2)c(F)c1 [Compound A5, methyl (S)-2-((2-(2,6-difluoro-4-(methylcarbamoyl)phenyl)-7-(trifluoromethyl)imidazo[1,2-a]pyridin-3-yl)methyl)morpholine-4-carboxylate]
< 100 | CNC(=O)c1ccc(-c2nc3cc(Cl)ccn3c2C[C@H]2CN(C(=O)OC)CCO2)c(Cl)c1 [Compound A9, methyl (S)-2-((2-(2-chloro-4-(methylcarbamoyl)phenyl)-7-chloro-imidazo[1,2-a]pyridin-3-yl)methyl)morpholine-4-carboxylate]
100 to 1000 | CNC(=O)c1cc(F)c(-c2nc3n(c2C[C@H]2CN(C(=O)OC)CCO2)CCC(C)C3)c(F)c1 (stereo partly drawn) [Compound A34, methyl (2S)-2-((2-(2,6-difluoro-4-(methylcarbamoyl)phenyl)-7-methyl-5,6,7,8-tetrahydroimidazo[1,2-a]pyridin-3-yl)methyl)morpholine-4-carboxylate]
100 to 1000 | CNC(=O)c1cc(F)c(-c2nc3cc(C(F)F)ccn3c2C[C@H]2CN(C(=O)OC)CCO2)c(OC)c1F [Compound A41, methyl (S)-2-((2-(3,6-difluoro-2-methoxy-4-(methylcarbamoyl)-phenyl)-7-(difluoromethyl)imidazo[1,2-a]pyridin-3-yl)methyl)morpholine-4-carboxylate]
> 1000 | COCCNC(=O)c1ccc(-c2nc3cc(Cl)ccn3c2C[C@H]2CN(C(=O)OC)CCO2)c(F)c1 [Compound A73, methyl (S)-2-((7-chloro-2-(2-fluoro-4-((2-methoxyethyl)carbamoyl)phenyl)imidazo[1,2-a]pyridin-3-yl)methyl)morpholine-4-carboxylate]
< 100 | CNC(=O)c1cc(F)c(-c2nc3cc(C)ccn3c2C[C@H]2CN(C(=O)OC)CCO2)c(F)c1F [Compound A6, methyl (S)-2-((7-methyl-2-(2,3,6-trifluoro-4-(methylcarbamoyl)-phenyl)imidazo[1,2-a]pyridin-3-yl)methyl)morpholine-4-carboxylate]
< 100 | CNC(=O)c1cc(F)c(-c2nc3cc(Cl)ccn3c2C[C@H]2CN(C(=O)OC)CCO2)c(OC)c1F [Compound A40, methyl (S)-2-((7-chloro-2-(3,6-difluoro-2-methoxy-4-(methyl-carbamoyl)phenyl)imidazo[1,2-a]pyridin-3-yl)methyl)morpholine-4-carboxylate]
> 1000 | CNC(=O)c1cc(F)c(-c2[nH]c3cccc(C)c3c2C[C@H]2CN(C(=O)OC)CCO2)c(F)c1 [Compound A31, methyl (S)-2-((2-(2,6-difluoro-4-(methylcarbamoyl)phenyl)-4-methyl-1H-indol-3-yl)methyl)morpholine-4-carboxylate]
100 to 1000 | COC(=O)N1CCO[C@@H](Cc2c(-c3ccc(S(C)(=O)=O)cc3F)nc3cc(C)ccn23)C1 [Compound A61, methyl (S)-2-((2-(2-fluoro-4-(methylsulfonyl)phenyl)-7-methylimidazo[1,2-a]pyridin-3-yl)methyl)morpholine-4-carboxylate]
< 100 | CNC(=O)c1cc(C)c(-c2nc3cc(C(F)F)ccn3c2C[C@H]2CN(C(=O)OC)CCO2)cc1F [Compound A44, methyl (S)-2-((7-(difluoromethyl)-2-(5-fluoro-2-methyl-4-(meth-ylcarbamoyl)phenyl)imidazo[1,2-a]pyridin-3-yl)methyl)morpholine-4-carboxylate]
< 100 | CNC(=O)c1ccc(-c2nc3cc(C(F)F)ccn3c2C[C@H]2CN(C(=O)OC)CCO2)c(Cl)c1 [Compound A32, methyl (S)-2-((2-(2-chloro-4-(methylcarbamoyl)phenyl)-7-(di-fluoromethyl)imidazo[1,2-a]pyridin-3-yl)methyl)morpholine-4-carboxylate]

— US12655145B2, “P2X3 modulators” (GlaxoSmithKline Intellectual Property (No. 3) Limited, priority 2020, dated 2026)
